Where two headings read alike, the source gives them in different places. Numbered stars: 1 amine (or outer) side, 2 acyl side, 3 side chain; on linkers, the order of the positions; unused ones are H or OH. Bridge positions count the residues as written; N and C are the ends. Square brackets hold non-standard residues; d marks the D form. Peptide text beside a SMILES is read from it. Gly(N-CH2CH2-imidazol-4-yl) = O=C(O)CNCCc1c[nH]cn1; Dip = N[C@H](C(=O)O)C(c1ccccc1)c1ccccc1; 1Nal = N[C@@H](Cc1cccc2ccccc12)C(=O)O; 2Nal = N[C@@H](Cc1ccc2ccccc2c1)C(=O)O; TBMB = c1c(C[*:1])cc(C[*:3])cc1C[*:2]; 2Thi = N[C@@H](Cc1cccs1)C(=O)O; β3hQ = NC(=O)CC[C@H](N)CC(=O)O; Phg = N[C@H](C(=O)O)c1ccccc1; Tle = CC(C)(C)[C@H](N)C(=O)O

A short description of data set [1]: Plasma stability profiling Method #1 (MALDI-TOF, 35% plasma), rat plasma. Format: in vitro ADME. The note with it: Table 12; method #1. How it is done: A rapid plasma stability profiling assay was developed that employed mass spectrometric detection (MALDI-TOF, Voyager DE, Applied Biosystems) of the parent mass, until the time when the parent peptide mass was no longer observable. Specifically, 200 uM of peptide was incubated in the presence of 35% rat or human plasma (Sera labs, using citrate as anticoagulant) at 37 deg C., which was supplemented with 1×PBS (derived from a 10×PBS Stock, Sigma). At various time points (i.e. t=0, 3, 24 hrs, henceafter daily up to 10 days), 2 uL of sample was added to 18 uL of 30 mM ammonium bicarbonate in a 1:1 mixture of acetonitrile:H2O. Samples were frozen at −80 deg C. until the time of analysis. For mass spectrometric analysis that determines the approximate detection window of the peptide, the acetonitrile:H2O-diluted sample of a given time point was spotted directly (0.7 uL) onto the MALDI plate. Matrix (alpha-cyanocinnamic acid, Sigma, prepared as a saturated solution in 1:1 acetonitrile:water containing 0.1% trifluoroacetic acid) was layered over the sample (1 uL). At a similar laser intensity setting on the MALDI TOF, the time could then be determined until parent peptide was no longer detectable. It should be noted that this is a qualitative assay serves to detect relative changes in plasma stability.

The target in the next data set is T1, human plasma Kallikrein (Homo sapiens, UniProt P03952).
T1 construct: purchased Stratech, UK
Nature of the data set: Functional enzyme inhibition assay with fluorogenic substrate Z-PheArg-AMC, human plasma Kallikrein. It counts as biochemical. How it is done:
Functional enzyme assays were conducted in 10 mM Tris HCl, 150 mM NaCl, 10 mM MgCl2, 1 mM CaCl2) and 1 mg/mL BSA (all Sigma UK) pH7.4 at 25° C. in solid black 96 well plates. Briefly 26.5 pM human plasma Kallikrein (purchased from Stratech, UK) or 500 pM rat plasma Kallikrein (expressed and purified in house) were incubated in the absence or presence of increasing concentrations of test peptide for 15 minutes before addition of the fluorogenic substrate Z-PheArg-AMC (Enzo Lifesciences UK) to a final assay concentration of 100 μM in 4% DMSO. Release of AMC was measured using a Pherastar FS (BMG Labtech), excitation 360 nm, emission 460 nm. The rate of the linear phase of the reaction, typically 5 to 45 minutes, was calculated in MARS data analysis software (BMG labtech). The rate was then used to calculate the IC50 and Ki in Prism (GraphPad). A four parameter inhibition non-linear regression equation was used to calculate the IC50.
Peptides were dissolved as the TFA-salts in their powder form, and stock solutions were usually prepared in water. All solutions were centrifuged and filtered ([…] syringe filters) prior absorption measurement at 280 nm. […] For peptides containing non-natural amino acids with suspected chromophoric properties (i.e. NorHar, 4PhenylPro, 3Pal, 4Pal, Tic, 4GuanPhe, 4,4-BPAI, 3,3-DPA, 1NAI, 2NAI, 4BenzylPro, Ind) concentrations were determined by weighing the powder and dissolving the peptide in a defined quantity of water.

[2] abbreviates: Table 24a, residue 6 modification in the context of Ac-(06-34-18) Phe2 Tyr4, read-out: Ki (nM) Ac-(06-34-18) Phe2 Tyr4.
[3] abbreviates: Table 24b, residue 7 modifications, read-out: Ki.
Setting [4] is: Table 24b, ratio of Ki to wild type.
The mark [5] stands for this setting: Table 24c, ratio of Ki to wild type.
[6] abbreviates: Table 24c, residue 8 modifications, read-out: Ki.
[7] abbreviates: Table 24a, residue 6 modification in the context of Ac-(06-34-18), read-out: Ki (nM) Ac-(06-34-18).

T1 sequence (P03952 20-638): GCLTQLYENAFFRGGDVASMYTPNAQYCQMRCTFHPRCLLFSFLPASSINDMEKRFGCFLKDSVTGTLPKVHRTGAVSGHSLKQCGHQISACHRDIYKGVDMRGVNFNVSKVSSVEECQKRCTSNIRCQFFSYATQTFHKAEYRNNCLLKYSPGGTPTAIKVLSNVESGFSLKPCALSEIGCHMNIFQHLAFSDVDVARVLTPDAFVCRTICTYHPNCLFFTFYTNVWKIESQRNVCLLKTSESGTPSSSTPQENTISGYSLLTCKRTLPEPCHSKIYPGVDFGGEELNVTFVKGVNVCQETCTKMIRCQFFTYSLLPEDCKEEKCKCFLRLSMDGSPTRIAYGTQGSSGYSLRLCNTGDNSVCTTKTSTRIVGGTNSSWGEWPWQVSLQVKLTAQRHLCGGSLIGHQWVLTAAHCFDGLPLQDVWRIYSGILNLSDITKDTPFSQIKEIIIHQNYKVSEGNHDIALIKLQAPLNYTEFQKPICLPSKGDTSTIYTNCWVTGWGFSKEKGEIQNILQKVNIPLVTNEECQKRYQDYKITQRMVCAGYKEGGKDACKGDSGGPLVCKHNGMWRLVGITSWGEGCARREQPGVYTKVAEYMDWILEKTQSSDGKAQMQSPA

`CC(=O)N[C@H]1CSCc2cc3cc(c2)CSC[C@H](NC(=O)[C@H](CCCNC(=N)N)NC(=O)[C@H](C)NC(=O)[C@@H]2CCCN2C(=O)[C@H](Cc2cccc4ccccc24)NC(=O)[C@H](CO)NC1=O)C(=O)N[C@@H](CC(C)C)C(=O)N[C@@H](Cc1c[nH]cn1)C(=O)N[C@@H](CCC(N)=O)C(=O)N[C@@H](CC(=O)O)C(=O)N[C@@H](CC(C)C)C(=O)N[C@H](C(N)=O)CSC3` [Ac-(06-34-18) 1NAL2] (Ac-CS[1Nal]PARCLHQDLC-NH2; linker 1-7-13 via TBMB): the “Observable in rat plasma, for days” value in data set [1] is recorded as 2 days.

In the case of `CC(=O)N[C@H]1CSCc2cc3cc(c2)CSC[C@H](NC(=O)[C@H](CCCNC(=N)N)NC(=O)[C@H](C)NC(=O)[C@@H]2CCCN2C(=O)[C@H](Cc2ccc4ccccc4c2)NC(=O)[C@H](CO)NC1=O)C(=O)N[C@@H](CC(C)C)C(=O)N[C@@H](Cc1c[nH]cn1)C(=O)N[C@@H](CCC(N)=O)C(=O)N[C@@H](CC(=O)O)C(=O)N[C@@H](CC(C)C)C(=O)N[C@H](C(N)=O)CSC3` [Ac-(06-34-18) 2NAL2] (Ac-CS[2Nal]PARCLHQDLC-NH2; linker 1-7-13 via TBMB), the “Observable in rat plasma, for days” value in data set [1] is 2 days. `CC(=O)N[C@H]1CSCc2cc3cc(c2)CSC[C@H](NC(=O)[C@H](CCCNC(=N)N)NC(=O)[C@H](C)NC(=O)[C@@H]2CCCN2C(=O)[C@H](C(c2ccccc2)c2ccccc2)NC(=O)[C@H](CO)NC1=O)C(=O)N[C@@H](CC(C)C)C(=O)N[C@@H](Cc1c[nH]cn1)C(=O)N[C@@H](CCC(N)=O)C(=O)N[C@@H](CC(=O)O)C(=O)N[C@@H](CC(C)C)C(=O)N[C@H](C(N)=O)CSC3` [Ac-(06-34-18) 3,3-DPA2] (Ac-CS[Dip]PARCLHQDLC-NH2; linker 1-7-13 via TBMB): the “Observable in rat plasma, for days” value in data set [1] was determined as 2 days. As for `CC[C@H](C)[C@@H]1NC(=O)[C@@H]2CSCc3cc(cc(c3)CSC[C@H](NC(C)=O)C(=O)N[C@@H](CO)C(=O)N[C@@H](Cc3ccccc3)C(=O)N3CCC[C@H]3C(=O)N[C@@H](Cc3ccc(O)cc3)C(=O)N[C@@H](CCCNC(=N)N)C(=O)N2)CSC[C@@H](C(N)=O)NC(=O)[C@H](CC(C)C)NC(=O)[C@H](CC(=O)O)NC(=O)[C@H](CCC(N)=O)NC(=O)[C@H](Cc2c[nH]cn2)NC1=O` [Ac-(06-34-18) Phe2 Tyr4 Ile6] (Ac-CSFPYRCIHQDLC-NH2; linker 1-7-13 via TBMB), the Ki on human plasma Kallikrein (setting [2]) was 1.46 nM. Take `CC(=O)N[C@H]1CSCc2cc3cc(c2)CSC[C@H](NC(=O)[C@H](CCCNC(=N)N)NC(=O)[C@H](Cc2ccc(O)cc2)NC(=O)[C@@H]2CCCN2C(=O)[C@H](Cc2ccccc2)NC(=O)[C@H](CO)NC1=O)C(=O)N[C@@H](CC(C)C)C(=O)N(CCc1c[nH]cn1)CC(=O)N[C@@H](CCC(N)=O)C(=O)N[C@@H](CC(=O)O)C(=O)N[C@@H](CC(C)C)C(=O)N[C@H](C(N)=O)CSC3` [Ac-(06-34-18) Phe2 Tyr4 N-His7] (Ac-CSFPYRCL[Gly(N-CH2CH2-imidazol-4-yl)]QDLC-NH2; linker 1-7-13 via TBMB): at human plasma Kallikrein (Table 25b, fold change of Ki of variant compared to WT), the “F (Kivar/KiWT)” value stood at 519. For the same compound, the inhibitory constant (Ki) on human plasma Kallikrein (Table 25b, peptide backbone modifications in Loop2, human plasma kallikrein, read-out: Ki) was determined as 218 nM. In the case of `CC(=O)N[C@H]1CSCc2cc3cc(c2)CSC[C@H](NC(=O)[C@H](CCCNC(=N)N)NC(=O)[C@H](Cc2ccc(O)cc2)NC(=O)[C@@H]2CCCN2C(=O)[C@H](Cc2ccccc2)NC(=O)[C@H](CO)NC1=O)C(=O)N[C@@H](Cc1ccccc1)C(=O)N[C@@H](Cc1c[nH]cn1)C(=O)N[C@@H](CCC(N)=O)C(=O)N[C@@H](CC(=O)O)C(=O)N[C@@H](CC(C)C)C(=O)N[C@H](C(N)=O)CSC3` [Ac-(06-34-18) Phe2 Tyr4 Phe6] (Ac-CSFPYRCFHQDLC-NH2; linker 1-7-13 via TBMB), the Ki at human plasma Kallikrein (setting [2]) was 14.9 nM. Take `CC(=O)N[C@H]1CSCc2cc3cc(c2)CSC[C@H](NC(=O)[C@H](CCCNC(=N)N)NC(=O)[C@H](Cc2ccc(O)cc2)NC(=O)[C@@H]2CCCN2C(=O)[C@H](Cc2ccccc2)NC(=O)[C@H](CO)NC1=O)C(=O)N[C@@H](CC(C)C)C(=O)N[C@@H](Cc1ccccc1)C(=O)N[C@@H](CCC(N)=O)C(=O)N[C@@H](CC(=O)O)C(=O)N[C@@H](CC(C)C)C(=O)N[C@H](C(N)=O)CSC3` [Ac-(06-34-18) Phe2 Tyr4 Phe7] (Ac-CSFPYRCLFQDLC-NH2; linker 1-7-13 via TBMB): on human plasma Kallikrein (setting [3]), the inhibitory constant (Ki) amounted to 43 nM. Also, on human plasma Kallikrein (setting [4]), the “F (Kivar/KiWT)” value stood at 102.

For `CC(=O)N[C@H]1CSCc2cc3cc(c2)CSC[C@H](NC(=O)[C@H](CCCNC(=N)N)NC(=O)[C@H](Cc2ccc(O)cc2)NC(=O)[C@@H]2CCCN2C(=O)[C@H](Cc2ccccc2)NC(=O)[C@H](CO)NC1=O)C(=O)N[C@@H](CC(C)C)C(=O)N[C@@H](Cc1cccs1)C(=O)N[C@@H](CCC(N)=O)C(=O)N[C@@H](CC(=O)O)C(=O)N[C@@H](CC(C)C)C(=O)N[C@H](C(N)=O)CSC3` [Ac-(06-34-18) Phe2 Tyr4 Thi7] (Ac-CSFPYRCL[2Thi]QDLC-NH2; linker 1-7-13 via TBMB), the Ki on human plasma Kallikrein (setting [3]) came to 34 nM. Also, the “F (Kivar/KiWT)” value at human plasma Kallikrein (setting [4]) came to 80. On to `CC(=O)N[C@H]1CSCc2cc3cc(c2)CSC[C@H](NC(=O)[C@H](CCCNC(=N)N)NC(=O)[C@H](Cc2ccc(O)cc2)NC(=O)[C@@H]2CCCN2C(=O)[C@H](Cc2ccccc2)NC(=O)[C@H](CO)NC1=O)C(=O)N[C@@H](CC(C)C)C(=O)N[C@@H]([C@@H](C)O)C(=O)N[C@@H]([C@@H](C)O)C(=O)N[C@@H](CCC(=O)O)C(=O)N[C@@H](CC(C)C)C(=O)N[C@H](C(N)=O)CSC3` [Ac-(06-34-18) Phe2 Tyr4 Thr7 Thr8 Glu9] (Ac-CSFPYRCLTTELC-NH2; linker 1-7-13 via TBMB), for which the “F (Kivar/KiWT)” value at human plasma Kallikrein (setting [5]) is given as 193. Turning to `CC(=O)N[C@H]1CSCc2cc3cc(c2)CSC[C@H](NC(=O)[C@H](CCCNC(=N)N)NC(=O)[C@H](Cc2ccc(O)cc2)NC(=O)[C@@H]2CCCN2C(=O)[C@H](Cc2ccccc2)NC(=O)[C@H](CO)NC1=O)C(=O)N[C@@H](CC(C)C)C(=O)N[C@@H](Cc1c[nH]cn1)C(=O)N[C@@H]([C@@H](C)O)C(=O)N[C@@H](CC(=O)O)C(=O)N[C@@H](CC(C)C)C(=O)N[C@H](C(N)=O)CSC3` [Ac-(06-34-18) Phe2 Tyr4 Thr8] (Ac-CSFPYRCLHTDLC-NH2; linker 1-7-13 via TBMB), at human plasma Kallikrein (setting [6]), the inhibition constant (Ki) was 4.23 nM. Moreover, the “F (Kivar/KiWT)” value on human plasma Kallikrein (setting [5]) stood at 10. Regarding `CC(=O)N[C@H]1CSCc2cc3cc(c2)CSC[C@H](NC(=O)[C@H](CCCNC(=N)N)NC(=O)[C@H](Cc2ccc(O)cc2)NC(=O)[C@@H]2CCCN2C(=O)[C@H](Cc2ccccc2)NC(=O)[C@H](CO)NC1=O)C(=O)N[C@@H](CC(C)C)C(=O)N[C@@H](Cc1c[nH]cn1)C(=O)N[C@@H](CCC(N)=O)CC(=O)N[C@@H](CC(=O)O)C(=O)N[C@@H](CC(C)C)C(=O)N[C@H](C(N)=O)CSC3` [Ac-(06-34-18) Phe2 Tyr4 bHGln8] (Ac-CSFPYRCLH[β3hQ]DLC-NH2; linker 1-7-13 via TBMB), on human plasma Kallikrein (setting [6]), the inhibition constant (Ki) stood at 16.8 nM. The “F (Kivar/KiWT)” value at human plasma Kallikrein (setting [5]) amounted to 40. As to `CC(=O)N[C@H]1CSCc2cc3cc(c2)CSC[C@H](NC(=O)[C@H](CCCNC(=N)N)NC(=O)[C@H](C)NC(=O)[C@@H]2CCCN2C(=O)[C@H](Cc2c[nH]c4ccccc24)NC(=O)[C@H](CO)NC1=O)C(=O)N[C@@H](c1ccccc1)C(=O)N[C@@H](Cc1c[nH]cn1)C(=O)N[C@@H](CCC(N)=O)C(=O)N[C@@H](CC(=O)O)C(=O)N[C@@H](CC(C)C)C(=O)N[C@H](C(N)=O)CSC3` [Ac-(06-34-18) Phg6] (Ac-CSWPARC[Phg]HQDLC-NH2; linker 1-7-13 via TBMB), the Ki on human plasma Kallikrein (setting [7]) was 0.18 nM. The same measure, in the same setting: as for `CC(=O)N[C@H]1CSCc2cc3cc(c2)CSC[C@H](NC(=O)[C@H](CCCNC(=N)N)NC(=O)[C@H](C)NC(=O)[C@@H]2CCCN2C(=O)[C@H](Cc2c[nH]c4ccccc24)NC(=O)[C@H](CO)NC1=O)C(=O)N[C@@H](C(C)(C)C)C(=O)N[C@@H](Cc1c[nH]cn1)C(=O)N[C@@H](CCC(N)=O)C(=O)N[C@@H](CC(=O)O)C(=O)N[C@@H](CC(C)C)C(=O)N[C@H](C(N)=O)CSC3` [Ac-(06-34-18) tBuGly6] (Ac-CSWPARC[Tle]HQDLC-NH2; linker 1-7-13 via TBMB), the figure is 0.49 nM.
